Assay results published in PubChem BioAssay AID489033 (Sanford-Burnham Center for Chemical Genomics, 2010).
The source made the active and inactive calls. The rule behind the calls is not given here. *1 amine or outer side, *2 acyl side, *3 side chain or, on linkers, in order; H or OH if unused. Where a SMILES comes first, the peptide text is derived from it. [ ]: non-standard residue; d: D form. X2 = CCC[C@@H](N[*:1])[C@H](C)C(=O)O[C@H](C(=O)[*:2])[C@@H](C)CC; X1 = CC(N[*:1])C(=O)C(C)(C)C(=O)[*:2]; NMeY = CN[C@@H](Cc1ccc(O)cc1)C(=O)O; NMeL = CN[C@@H](CC(C)C)C(=O)O; NMeV = CN[C@H](C(=O)O)C(C)C; NMeA = CN[C@@H](C)C(=O)O

System: 697B B-cell line, NF-kB luciferase reporter luminescence
Experiment: inhibitors of B-cell NF-kB luciferase signal – 697B cells, luminescence, selectivity assay for T-cell antigen receptor NF-kB inhibitors, dose response (AID 489033)

## COc1cc2nc(CN3CC=C(c4ccccc4)CC3)[nH]c(=O)c2cc1OC
  IC50: 13.8 µM

## COc1ccccc1-c1nnc2n1N=C(c1ccc(O)c(O)c1)CS2
  IC50: 77.9 µM (inactive)

## CC1(C)Cc2nc3sc4c(=O)n(CC(=O)NCc5ccccc5)cnc4c3cc2CO1
  IC50: > 80 µM (inactive)

## COC(=O)Nc1ccc(S(=O)(=O)N2CCCc3ccccc32)cc1
  IC50: > 80 µM (inactive)

## CC(C)(C)C(=O)Nc1ccc(NC(=O)c2ccco2)nc1
  IC50: 1.47 µM

## Cc1ccc(S(=O)(=O)Nc2cccc(-c3ccc4nncn4n3)c2)cc1
  IC50: > 80 µM (inactive)

## Cc1ccc(NS(=O)(=O)c2ccc(C(=O)NC3CCN(Cc4ccccc4)CC3)cc2)cc1
  IC50: 45.5 µM (inactive)

## Oc1ccc(Nc2nc3ccccc3nc2Nc2ccc(O)cc2)cc1
  IC50: 3.73 µM

## CC(=O)O[C@@]12CO[C@@H]1C[C@@H](O)[C@@]1(C)C(=O)[C@H](O)C3=C(C)[C@@H](OC(=O)[C@H](O)[C@@H](NC(=O)c4ccccc4)c4ccccc4)C[C@@](O)([C@@H](OC(=O)c4ccccc4)C12)C3(C)C (stereo partly drawn)
  IC50: > 80 µM (inactive)

## COc1cc(/C=C/c2ccc3cccc(O)c3n2)cc(OC)c1OC
  IC50: 0.63 µM

## Cc1ccc(NC(=O)c2cc3ccccc3oc2=O)cc1S(=O)(=O)N(C)C
  IC50: < 0.16 µM

## CCN(CC)c1ccc(/C=C/c2ccc3ccc(OC)cc3[n+]2CC)cc1
  IC50: 2.84 µM

## CCOc1ccccc1NS(=O)(=O)c1ccc(-c2cnc(C3CC3)o2)cc1
  IC50: > 80 µM (inactive)

## COC(=O)Cc1[nH]n(-c2nc3ccccc3s2)c(=O)c1C(C)=Nc1ccc(OC)cc1
  IC50: 4.93 µM

## COc1cc(/C=C/C(=O)c2ccc([N+](=O)[O-])o2)ccc1O
  IC50: 14.5 µM

## Cc1nc(Sc2nnnn2C)c2c3c(sc2n1)CCC3
  IC50: > 80 µM (inactive)

## COC(=O)c1[nH]c2ccc(F)cc2c1NS(=O)(=O)c1ccc(OC)cc1
  IC50: > 80 µM (inactive)

## CCOc1ccccc1C1CC(=O)Nc2cc3c(cc21)OCCO3 (stereo not drawn)
  IC50: > 80 µM (inactive)

## CCOC(=O)c1ccccc1NS(=O)(=O)c1ccc(OCC)cc1
  IC50: > 80 µM (inactive)

## CC(C)CCOc1cccc(OCC(=O)Nc2ccncc2)c1
  IC50: > 80 µM (inactive)

## Cc1noc(C)c1COc1ccc(CC(=O)NCc2ccccc2)cc1
  IC50: > 80 µM (inactive)

## CCOc1ccc(Br)cc1C1=CC(=O)C[C@H](c2ccc(OC)cc2)C1
  IC50: > 80 µM (inactive)

## CCn1ncc(C2=NOC(C(=O)NCc3ccc(Cl)cc3)C2)c1C (stereo not drawn)
  IC50: > 80 µM (inactive)

## O=S1(=O)C=C(Sc2nc3cc(Cl)ccc3o2)c2ccccc21
  IC50: 0.21 µM

## Cn1nc(-c2ccccn2)nc2c(=O)n(C)c(=O)nc1-2
  IC50: 4.12 µM

## CC(C)c1oc(=O)cc2c1[C@@H](O)[C@H]1OC(=O)[C@@]3(C)CC[C@@H](O)[C@@]2(C)C13 (stereo partly drawn)
  IC50: 14 µM

## CCN(CC)c1ccc2nc3ccccc3[n+](CC)c2c1
  IC50: 45.8 µM (inactive)

## CC(=O)c1ccc(Oc2cc(C)nc(-n3nc(C)cc3C)n2)cc1
  IC50: > 80 µM (inactive)

## CC(C)(C)c1ccc(C(=O)O/N=C(\N)c2ccccn2)cc1
  IC50: 0.88 µM

## CCC[C@H]1NC(=O)[C@H](C)N(C)C(=O)C(C)(C)C(=O)C(C)NC(=O)[C@H](Cc2ccc(OC)cc2)N(C)C(=O)[C@H](C(C)C)N(C)C(=O)CNC(=O)[C@H](CC(C)C)N(C)C(=O)CNC(=O)[C@H]([C@@H](C)CC)OC(=O)[C@H]1C (stereo partly drawn) (cyclo(G[NMeL]G[NMeV][NMeY](Me)[X1][NMeA][X2]))
  IC50: 29.3 µM (inactive)

## O=C(Nc1ccc(Oc2cccnc2)nc1)c1ccc(C(F)(F)F)cc1
  IC50: 0.25 µM

## CCCCOc1ccccc1C1CC(=O)NC2=C1C(=O)CCC2 (stereo not drawn)
  IC50: > 80 µM (inactive)

## Cc1ccc(C)c(NS(=O)(=O)c2ccc(-c3cnc(C4CC4)o3)cc2)c1
  IC50: > 80 µM (inactive)

## Cc1c(C(=O)OCC(C)C)[nH]c2c1C(=O)CC(c1cccs1)C2 (stereo not drawn)
  IC50: > 80 µM (inactive)

## O=C1CC(c2cccc(Br)c2)c2cc3c(cc2N1)CCC3 (stereo not drawn)
  IC50: 30.7 µM (inactive)

## COc1ccc([C@H]2CC(=O)C=C(c3ccc(OC)cc3OC)C2)cc1
  IC50: > 80 µM (inactive)

## O=C(N/N=C/c1c(O)ccc2ccccc12)c1ccc(Br)o1
  IC50: > 80 µM (inactive)

## CCn1c2ccccc2c2cc(NC(=O)c3cc(OC)cc(OC)c3)ccc21
  IC50: > 80 µM (inactive)

## COc1cccc(-c2cc(=O)c3cc(NC(=O)c4ccccc4)ccc3[nH]2)c1
  IC50: > 80 µM (inactive)

## CC1=CC(C)(C)N(S(=O)(=O)c2ccc(C)cc2)c2cc(C)ccc21
  IC50: > 80 µM (inactive)

## Oc1ccc2ccccc2c1N=Nc1ccccn1
  IC50: 3.22 µM

## C#CC[N+](C)(C)CCCCCCCCCCCC
  IC50: 2.56 µM

## CCOC(=O)c1[nH]c(C)c(C(=O)Nc2ccc(C)cc2C)c1C
  IC50: 42.3 µM (inactive)

## Cc1cc(C)cc(NC(=O)c2ccc([N+](=O)[O-])o2)c1
  IC50: 21.3 µM (inactive)

## C=C1C(=O)O[C@H]2C[C@@H](C)[C@@H]3C=CC(=O)[C@@]3(C)C[C@H]12
  IC50: 1.25 µM

## COc1cc(C(=O)N2CCN(c3cccc(C)c3C)CC2)cc(OC)c1OC
  IC50: > 80 µM (inactive)

## CCN(CC)c1ccc(NC(=O)c2cc(OC)cc(OC)c2)c(C)c1
  IC50: > 80 µM (inactive)

## COc1cc2c(c(OC)c1OC)-c1ccc(OC)c(=O)cc1[C@@H](NC(C)=O)CC2
  IC50: > 80 µM (inactive)

## COc1cccc(CN(C)C(=O)c2ccc(OCC(=O)Nc3cccc(C(F)(F)F)c3)c(OC)c2)c1
  IC50: 65.7 µM (inactive)

## COCCn1c(C)cc(C2=NNC(=Nc3ccccc3F)SC2)c1C
  IC50: 20.7 µM (inactive)

## CN(C)c1ccc(-c2nn3c(-c4ccccc4Cl)nnc3s2)cc1
  IC50: > 80 µM (inactive)

## Cc1cc(NC(=O)CSc2nc3c(sc4ccccc43)c(=O)n2CCCN2CCOCC2)n[nH]1
  IC50: > 80 µM (inactive)

## COc1ccccc1-c1nnc2sc(-c3ccc(N(C)C)cc3)nn12
  IC50: > 80 µM (inactive)

## COc1cccc(C2CC(=O)Nc3cc4c(cc32)CCC4)c1 (stereo not drawn)
  IC50: > 80 µM (inactive)

## COC(=O)c1ccccc1NC(=O)Cn1c(-c2nonc2N)nc2ccccc21
  IC50: > 80 µM (inactive)

## COc1ccc(CCNc2cc(N3CCN(C(=O)c4ccccc4F)CC3)ccc2[N+](=O)[O-])cc1OC
  IC50: > 80 µM (inactive)

## N#C/C(=C\c1ccc(OCc2ccc(C(=O)O)cc2)cc1)C(=O)N1CCOCC1
  IC50: 5.92 µM

## Cc1ccc2nc(-c3ccc4c(c3)OCCO4)cn2c1
  IC50: 0.47 µM

## COc1ccc(/C=C/C(=O)c2cc(F)ccc2OC(=O)c2ccccc2)cc1OC
  IC50: > 80 µM (inactive)

## Cn1ncc2c(N3CCN(c4ccc(Cl)c(Cl)c4)CC3)ncnc21
  IC50: > 80 µM (inactive)

## O=C(N/N=C/c1ccccc1Cl)c1[nH]c2ccc(Br)cc2c1-c1ccccc1
  IC50: > 80 µM (inactive)

## COc1ccccc1NC(=O)c1cnc(Nc2ccccc2OC)c2ccccc12
  IC50: > 80 µM (inactive)

## CC(=O)O[C@H]1C(=O)[C@@]2(C)C([C@H](OC(=O)c3ccccc3)[C@]3(O)C[C@H](OC(=O)[C@H](O)[C@@H](NC(=O)Cc4ccccc4)c4ccccc4)C(C)=C1C3(C)C)[C@]1(OC(C)=O)CO[C@@H]1C[C@@H]2O (stereo partly drawn)
  IC50: > 80 µM (inactive)

## CC(=O)NC(c1ccc(C(C)C)cc1)c1ccc2cccnc2c1O (stereo not drawn)
  IC50: > 80 µM (inactive)

## CCCCCCCCn1c2c(c(=N)c3ccccc31)CCC2
  IC50: 2.31 µM

## COC(=O)CCC(=O)NC(=S)Nc1sc(C)c(C)c1C(N)=O
  IC50: > 80 µM (inactive)

## C[C@]12CC[C@H](O)C[C@H]1CC[C@@H]1[C@@H]2C[C@@H](O)[C@]2(C)[C@@H](C3=CC(=O)OC3)CC[C@]12O
  IC50: 1.6 µM

## Cc1nc(SCC(=O)Nc2nc3ccccc3s2)c(C#N)c(C)c1C
  IC50: < 0.16 µM

## CCN(CC)c1ccc(-c2nn3c(-c4ccccc4OC)nnc3s2)cc1
  IC50: > 80 µM (inactive)

## COc1cc(C(=O)Nc2ccc3c(c2)CCN3C(C)=O)cc(OC)c1OC
  IC50: > 80 µM (inactive)

## Cc1ccc(S(=O)(=O)NCc2ccncc2)cc1C
  IC50: > 80 µM (inactive)

## Cc1noc(C)c1COc1ccc(C(=O)NNC(=O)c2ccccc2F)cc1
  IC50: > 80 µM (inactive)

## C/C=C(\C)C(=O)N[C@@H](c1ccccc1)[C@@H](O)C(=O)O[C@H]1C[C@@]2(O)[C@@H](OC(=O)c3ccccc3)C3[C@](C)(C(=O)[C@H](O)C(=C1C)C2(C)C)[C@@H](O)C[C@H]1OC[C@@]31OC(C)=O (stereo partly drawn)
  IC50: > 80 µM (inactive)

## Cc1cc(C)c2nc(C)cc(N/N=C/c3ccc(O)cc3)c2c1
  IC50: 3.49 µM

## COc1ccc(/C=C2/C(=O)OCc3cc(OC)c(OC)cc32)cc1
  IC50: > 80 µM (inactive)

## COc1ccccc1C(=O)N(CCC1CCCN1C)c1nc2ccccc2s1 (stereo not drawn)
  IC50: > 80 µM (inactive)

## CC/C=C/CC(=O)N[C@@H](c1ccccc1)[C@@H](O)C(=O)O[C@H]1C[C@@]2(O)[C@@H](OC(=O)c3ccccc3)C3[C@](C)(C(=O)[C@H](OC(C)=O)C(=C1C)C2(C)C)[C@@H](O)C[C@H]1OC[C@@]31OC(C)=O (stereo partly drawn)
  IC50: > 80 µM (inactive)

## O=C(OCCN1C(=O)c2cccc3c(N4CCOCC4)ccc(c23)C1=O)c1ccc(Cl)cc1
  IC50: > 80 µM (inactive)

## Cc1c(C)c2cccnc2c2ncccc12
  IC50: 6.81 µM

## COc1ccc(C)c(Cn2c(-c3nonc3N)nc3ccccc32)c1
  IC50: > 80 µM (inactive)

## CC[C@@]1(O)C(=O)OCc2c1cc1n(c2=O)Cc2cc3c(CN(C)C)c(O)ccc3nc2-1
  IC50: 0.96 µM

## c1ccc(-c2cccc(-c3ccccn3)n2)nc1
  IC50: 6.4 µM

## CCCOc1ccc(/C=N/Nc2cc(N3CCOCC3)ncn2)c(O)c1
  IC50: 11 µM

## Cc1ccc2nc(SCC(=O)Nc3cc(C(F)(F)F)ccc3N3CCOCC3)[nH]c2c1
  IC50: > 80 µM (inactive)

## COc1cccc(N2CCN(C(=O)c3cn(Cc4ccccc4)nc3-c3cccnc3)CC2)c1
  IC50: > 80 µM (inactive)

## C(=N\Nc1nc2ccccc2s1)/c1ccccn1
  IC50: 0.39 µM

## Cc1cc(=O)oc2cc(OCC3CC(c4ccccc4Cl)=NO3)ccc12 (stereo not drawn)
  IC50: > 80 µM (inactive)

## COc1ccccc1C1=NOC(COc2ccc3c(C)cc(=O)oc3c2)C1 (stereo not drawn)
  IC50: > 80 µM (inactive)

## Cc1ccc(S(=O)(=O)NCc2ccncc2)c(C)c1C
  IC50: > 80 µM (inactive)

## COc1ccc(/C=N/Nc2cc(C)nc3ccc(OC)cc23)c(OC)c1
  IC50: 5.2 µM

## COc1ccccc1CNS(=O)(=O)c1ccc(-c2cc(C)no2)cc1
  IC50: > 80 µM (inactive)

## Cc1ccccc1NC1=C/C(=N\S(=O)(=O)c2cccs2)c2ccccc2C1=O
  IC50: 6.69 µM

## CCc1ccc(S(=O)(=O)/N=C2\C=C(Nc3ccc(O)cc3)C(=O)c3ccccc32)cc1
  IC50: 5.19 µM
